The subject of experiment [1] is Klebsiella aerogenes. Briefly: Antimicrobial activity against Enterobacter aerogenes isolate SS-13 by broth macrodilution method. It counts as functional.
The nature of experiment [2]: Activity of Beta-lactamase TEM-149 expressed in Escherichia coli HB101.
Experiment [3] is described as follows: Activity of Beta-lactamase TEM-149 T182M mutant expressed in Escherichia coli HB101.
Experiment [4] has as its system Escherichia coli. As to the kind of experiment: Antimicrobial activity against Escherichia coli HB101 expressing plasmid encoded TEM-149 T182M mutant by broth macrodilution method. It counts as functional.
Experiment [5] relates to Escherichia coli. As to the kind of experiment: Antimicrobial activity against Escherichia coli HB101 expressing recombinant plasmid encoded TEM-149 by broth macrodilution method. Type of experiment: functional.
Experiment [6] is described as follows: Ratio of Kcat to Km for Beta-lactamase TEM-149 expressed in Escherichia coli HB101.
In experiment [7] the test system is Escherichia coli. Briefly: Antimicrobial activity against Escherichia coli HB101 harboring empty vector pBK-SK by broth macrodilution method. Type of experiment: functional.
The test system of experiment [8] is Serratia marcescens. As to the kind of experiment: Antimicrobial activity against Serratia marcescens isolate CT-118 by broth macrodilution method. It counts as functional.
The nature of experiment [9]: Ratio of Kcat to Km for Beta-lactamase TEM-149 T182M mutant expressed in Escherichia coli HB101.
The nature of experiment [10]: Activity of Beta-lactamase TEM-10.
The nature of experiment [11]: Ratio of Kcat to Km for Beta-lactamase TEM-10.

≈ marks a conversion by molar mass, not a printed value.

What is called MIC is the smallest concentration in the dilution series that meets the test's criterion for growth inhibition. One may read the Km as the concentration of substrate that gives half-maximal velocity. For orientation: kcat means the maximal rate divided by the concentration of active sites. By kcat/Km is commonly meant the second-order rate constant that governs catalysis at low substrate concentration. As for `CO/N=C(\C(=O)N[C@@H]1C(=O)N2C(C(=O)[O-])=C(C[N+]3(C)CCCC3)CS[C@H]12)c1csc(N)n1`, the MIC in experiment [1] was above 64 µg/mL; in experiment [4], below 0.125 µg/mL; in experiment [5], 8 µg/mL; in [7], 1 µg/mL (≈ 2.08 µM); in experiment [8] it was above 64 µg/mL. Further, the Michaelis constant (Km) came out at 16 µM in [2] and 30 µM in [3]. Besides, the kcat was 2.4 s⁻¹ in [2] and 0.43 s⁻¹ in experiment [3]. Further, the kcat/Km in experiment [6] amounted to 0.15 µM⁻¹ s⁻¹; in experiment [9], 0.014 µM⁻¹ s⁻¹.

`CC1(C)S[C@@H]2[C@H](NC(=O)Cc3ccccc3)C(=O)N2[C@H]1C(=O)O`: the Km worked out at 0.6 µM in experiment [2], 0.7 µM in [3] and 2 µM in [10]. Moreover, the kcat is 3.5 s⁻¹ in experiment [2], 10.5 s⁻¹ in experiment [3] and 51 s⁻¹ in [10]. For the same molecule, the kcat/Km in experiment [6] amounted to 5.8 µM⁻¹ s⁻¹; in experiment [11] it was 25.5 µM⁻¹ s⁻¹; in [9], 15 µM⁻¹ s⁻¹.

As for `CC1(C)S[C@@H]2[C@H](NC(=O)[C@H](N)c3ccccc3)C(=O)N2[C@H]1C(=O)O`, the Km in [2] stood at 5 µM; in [3] it was 19 µM; in [10] it was 4 µM. Moreover, the kcat in [2] came out at 5.4 s⁻¹; in experiment [3], 2.4 s⁻¹; in experiment [10], 12.5 s⁻¹. Further, the kcat/Km worked out at 1.08 µM⁻¹ s⁻¹ in experiment [6], 3.1 µM⁻¹ s⁻¹ in [11] and 0.127 µM⁻¹ s⁻¹ in experiment [9].

For `CC1(C)S[C@@H]2[C@H](NC(=O)[C@H](N)c3ccc(O)cc3)C(=O)N2[C@H]1C(=O)O` [AMOXICILLIN], the MIC in [1] was above 64 µg/mL; in experiment [4], 8 µg/mL (≈ 21.9 µM); in experiment [5], above 64 µg/mL; in [8] it was above 64 µg/mL.

With `C[C@H]1[C@H](NC(=O)/C(=N\OC(C)(C)C(=O)O)c2csc(N)n2)C(=O)N1S(=O)(=O)O` [AZTREONAM], the minimum inhibitory concentration (MIC) was above 64 µg/mL in [1]; below 0.125 µg/mL in [4]; above 64 µg/mL in [5]; 64 µg/mL (≈ 147 µM) in experiment [7]; above 64 µg/mL in [8]. For the same molecule, the Km amounted to 51 µM in experiment [2], 27 µM in experiment [3] and 28 µM in experiment [10]. Besides, the results for the kcat in experiment [2], in [3] and in experiment [10] were 4.7 s⁻¹, 3.6 s⁻¹ and 2 s⁻¹, respectively. Further, the kcat/Km in [6] turned out to be 0.092 µM⁻¹ s⁻¹; in experiment [11], 0.07 µM⁻¹ s⁻¹; in experiment [9], 0.13 µM⁻¹ s⁻¹.

Take `Cc1nnc(SCC2=C(C(=O)O)N3C(=O)[C@@H](NC(=O)Cn4cnnn4)[C@H]3SC2)s1` [CEFAZOLIN]: the minimum inhibitory concentration (MIC) in experiment [1] is above 64 µg/mL; in [4], 1 µg/mL (≈ 2.2 µM); in experiment [5] it was 32 µg/mL; in [7], 4 µg/mL (≈ 8.8 µM); in [8], above 64 µg/mL. For the same molecule, the Km in [2] amounted to 68 µM; in experiment [3], 35 µM; in experiment [10], 417 µM. Moreover, the kcat in experiment [2] turned out to be 2.2 s⁻¹; in [3], 0.56 s⁻¹; in experiment [10], 12.5 s⁻¹. Besides, the catalytic efficiency (kcat/Km) in experiment [6] amounted to 0.032 µM⁻¹ s⁻¹; in experiment [11], 0.03 µM⁻¹ s⁻¹; in [9], 0.016 µM⁻¹ s⁻¹.

As to `CO/N=C(\C(=O)N[C@@H]1C(=O)N2C(C(=O)O)=C(COC(C)=O)CS[C@H]12)c1csc(N)n1` [CEFOTAXIME], the MIC in experiment [1] was above 128 µg/mL; in experiment [4] it was below 0.125 µg/mL; in experiment [5] it was 1 µg/mL; in experiment [7], 4 µg/mL (≈ 8.78 µM); in experiment [8], above 128 µg/mL. Besides, the Km in experiment [2] is 43 µM; in [3], 32 µM; in [10] it was 30 µM. In addition, the kcat in experiment [2] turned out to be 0.07 s⁻¹; in experiment [3] it was 0.41 s⁻¹; in [10], 0.3 s⁻¹. Moreover, the kcat/Km amounted to 0.0016 µM⁻¹ s⁻¹ in [6], 0.01 µM⁻¹ s⁻¹ in [11] and 0.013 µM⁻¹ s⁻¹ in experiment [9].

With `CC(C)(O/N=C(\C(=O)N[C@@H]1C(=O)N2C(C(=O)[O-])=C(C[n+]3ccccc3)CS[C@H]12)c1csc(N)n1)C(=O)O` [CEFTAZIDIME], the MIC in experiment [1] was above 64 µg/mL; in experiment [4], 0.5 µg/mL (≈ 0.915 µM); in experiment [5] it was above 64 µg/mL; in experiment [7], above 64 µg/mL; in experiment [8] it was above 64 µg/mL. Also, the Km was 19 µM in [2], 26 µM in experiment [3] and 607 µM in experiment [10]. For the same molecule, the catalytic constant (kcat) in [2] stood at 8.3 s⁻¹; in experiment [3] it was 8.3 s⁻¹; in experiment [10] it was 17 s⁻¹. For the same molecule, the kcat/Km in experiment [6] worked out at 0.44 µM⁻¹ s⁻¹; in [11], 0.028 µM⁻¹ s⁻¹; in experiment [9], 0.32 µM⁻¹ s⁻¹.

On to `CCN1CCN(C(=O)N[C@@H](C(=O)N[C@@H]2C(=O)N3[C@@H]2SC(C)(C)[C@@H]3C(=O)O)c2ccccc2)C(=O)C1=O` [PIPERACILLIN], for which the MIC in experiment [1] was above 256 µg/mL; in experiment [4], 1 µg/mL (≈ 1.93 µM); in experiment [5] it was above 256 µg/mL; in experiment [7], 32 µg/mL (≈ 61.8 µM); in experiment [8] it was above 256 µg/mL. In addition, the values for the Michaelis-Menten constant (Km) in experiment [2] and in [3] were 1.4 µM and 3.4 µM, respectively. Further, the results for the kcat in [2] and in experiment [3] were 2.7 s⁻¹ and 5 s⁻¹, respectively. Besides, the kcat/Km was determined as 1.92 µM⁻¹ s⁻¹ in experiment [6] and 1.47 µM⁻¹ s⁻¹ in [9].
